Results on seven compounds are retold here after ChEMBL document CHEMBL6182925 (J Med Chem, 2025).

Data set [1] in a line: Kinetic solubility of compound at pH 2. Type of data set: physicochemical. The settings on record: buffer, read-out: Kinetic_solubility.
In data set [2] the target is 3',5'-cyclic-AMP phosphodiesterase 4D (Homo sapiens) (UniProt Q08499). Put plainly: Inhibition of PDE4D2 (unknown origin) at 10 uM by CEREP analysis relative to control.
The target in data set [3] is T1, Muscarinic acetylcholine receptor M2 (Homo sapiens) (UniProt P08172).
T1 sequence (whole entry): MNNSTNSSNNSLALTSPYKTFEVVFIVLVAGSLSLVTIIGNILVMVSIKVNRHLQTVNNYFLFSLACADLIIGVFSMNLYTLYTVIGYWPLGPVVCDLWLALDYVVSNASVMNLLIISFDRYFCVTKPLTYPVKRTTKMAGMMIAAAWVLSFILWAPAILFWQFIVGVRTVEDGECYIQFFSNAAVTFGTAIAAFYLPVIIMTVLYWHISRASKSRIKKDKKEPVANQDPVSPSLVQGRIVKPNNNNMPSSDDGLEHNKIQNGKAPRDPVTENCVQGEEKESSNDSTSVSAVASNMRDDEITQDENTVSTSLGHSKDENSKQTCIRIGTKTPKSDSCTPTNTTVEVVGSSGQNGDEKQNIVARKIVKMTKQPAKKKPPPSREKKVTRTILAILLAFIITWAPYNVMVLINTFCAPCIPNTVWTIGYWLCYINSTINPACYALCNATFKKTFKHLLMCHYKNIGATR
Put plainly: Inhibition of muscarinic M2 receptor (unknown origin) at 10 uM by CEREP analysis relative to control.

Data set [4] in a line: cells. To be noted: Mus musculus, BaF3/TRP-Met, 72 h.
Data set [5] addresses L-type calcium channel (Homo sapiens, UniProt O60840+Q01668+Q13698+Q13936). Nature of the data set: Inhibition of Calcium channel L-type (unknown origin) at 10 uM by CEREP analysis relative to control. The format is protein assay.
For data set [6], the target named is cGMP-inhibited 3',5'-cyclic phosphodiesterase 3A (Homo sapiens) (UniProt Q14432). Nature of the data set: Inhibition of PDE3A (unknown origin) at 10 uM by CEREP analysis relative to control.
The species entered for data set [7] is Homo sapiens. Nature of the data set: Inhibition of sodium channel site 2 (unknown origin) at 10 uM by CEREP analysis relative to control.
Data set [8] addresses Sodium-dependent serotonin transporter (Homo sapiens) (UniProt P31645). Nature of the data set: Inhibition of SERT (unknown origin) at 10 uM by CEREP analysis relative to control.
Data set [9] concerns the target hERG (Homo sapiens, UniProt Q12809). Nature of the data set: Inhibition of hERG at 10 uM by CEREP analysis relative to control. The format is toxicity.
Data set [10] concerns the target 5-hydroxytryptamine receptor 1B (Homo sapiens) (UniProt P28222). Nature of the data set: Inhibition of 5-HT1B receptor (unknown origin) at 10 uM by CEREP analysis relative to control.
Data set [11] in a line: Kinetic solubility of compound at pH 4.5. The format is physicochemical. The settings on record: buffer, read-out: Kinetic_solubility.
Data set [12] has as its target T2, Alpha-2A adrenergic receptor (Homo sapiens) (UniProt P08913).
T2 sequence (whole entry): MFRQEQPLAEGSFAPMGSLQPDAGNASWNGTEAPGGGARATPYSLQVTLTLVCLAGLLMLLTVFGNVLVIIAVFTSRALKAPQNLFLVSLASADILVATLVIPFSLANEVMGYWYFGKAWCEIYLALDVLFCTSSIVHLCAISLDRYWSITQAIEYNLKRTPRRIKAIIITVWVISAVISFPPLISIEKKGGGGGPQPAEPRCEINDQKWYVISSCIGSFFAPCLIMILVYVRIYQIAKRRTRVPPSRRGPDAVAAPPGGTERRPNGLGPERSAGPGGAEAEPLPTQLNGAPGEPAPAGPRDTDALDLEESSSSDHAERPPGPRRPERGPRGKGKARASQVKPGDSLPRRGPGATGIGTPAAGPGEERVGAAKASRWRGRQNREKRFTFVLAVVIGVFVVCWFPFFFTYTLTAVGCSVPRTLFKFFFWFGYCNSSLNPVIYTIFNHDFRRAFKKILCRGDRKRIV
Put plainly: Inhibition of alpha 2A adrenergic receptor (unknown origin) at 10 uM by CEREP analysis relative to control.

Data set [13] is described as follows: Clearance in mouse. To be noted: in vivo. Type of data set: ADME, organism-based.
Data set [14] in a line: Oral bioavailability in mouse. To be noted: in vivo. The format is ADME, organism-based.
The target in data set [15] is 5-hydroxytryptamine receptor 2B (Homo sapiens) (UniProt P41595). Put plainly: Inhibition of 5-HT2B receptor (unknown origin) at 10 uM by CEREP analysis relative to control.
Data set [16] relates to BaF3. Put plainly: cells. The settings on record: Mus musculus, BaF3, 72 h.
The nature of data set [17]: Oral bioavailability in rat. Type of data set: ADME, organism-based. To be noted: in vivo.
The target in data set [18] is Vascular endothelial growth factor receptor 2 (Homo sapiens, UniProt P35968). Nature of the data set: Inhibition of KDR (unknown origin) by fluorescence-based microfluidic mobility shift assay.
In data set [19] the test system is BaF3. Put plainly: cells. The settings on record: Mus musculus, BaF3, 72 h. This is another data set of the same source.
For data set [20], the system named is BaF3. Nature of the data set: cells. The settings on record: Mus musculus, BaF3, 72 h. This is another data set of the same source.
Data set [21] addresses Tyrosine-protein kinase receptor UFO (Homo sapiens, UniProt P30530). Put plainly: Inhibition of AXL (unknown origin) by fluorescence-based microfluidic mobility shift assay.
In data set [22] the test system is BaF3. Nature of the data set: cells. The settings on record: Mus musculus, BaF3, 72 h. This is another data set of the same source.
Data set [23] relates to BaF3. Nature of the data set: cells. To be noted: Mus musculus, BaF3, 72 h. This is another data set of the same source.
Data set [24] concerns BaF3. Nature of the data set: cells. To be noted: Mus musculus, BaF3, 72 h. This is another data set of the same source.
Data set [25] concerns BaF3. Nature of the data set: cells. The settings on record: Mus musculus, BaF3, 72 h. This is another data set of the same source.
Data set [26] has as its system BaF3. Nature of the data set: cells. To be noted: Mus musculus, BaF3, 72 h. This is another data set of the same source.
In data set [27] the test system is BaF3. Put plainly: cells. The settings on record: Mus musculus, BaF3, 72 h. This is another data set of the same source.
Data set [28] has as its system BaF3. Put plainly: cells. The settings on record: Mus musculus, BaF3, 72 h. This is another data set of the same source.
Data set [29] concerns BaF3. Nature of the data set: cells. To be noted: Mus musculus, BaF3, 72 h. The source holds these as a separate data set.
Data set [30] has as its target Tyrosine-protein kinase Mer (Homo sapiens, UniProt Q12866). Nature of the data set: Inhibition of MERTK (unknown origin) by fluorescence-based microfluidic mobility shift assay.
Data set [31] concerns BaF3. Put plainly: cells. To be noted: Mus musculus, BaF3, 72 h. This is another data set of the same source.
For data set [32], the system named is BaF3. Put plainly: cells. The settings on record: Mus musculus, BaF3, 72 h. This is another data set of the same source.
The subject of data set [33] is BaF3. Nature of the data set: cells. To be noted: Mus musculus, BaF3, 72 h. This is another data set of the same source.
In data set [34] the target is Hepatocyte growth factor receptor (Homo sapiens, UniProt P08581). Nature of the data set: Inhibition of N-terminal GST-tagged wild-type human c-MET (956 to 1390 residues) extracted from baculovirus infected Sf21 cells using 5-FAM-KKKKEEIYFFF-CONH2 as substrate preincubated for 30 mins followed by ATP addition measured after 60 mins by fluorescence-based microfluidic mobility shift assay.

The target of data set [35] is Hepatocyte growth factor receptor (Homo sapiens, UniProt P08581, D1228N). Put plainly: Inhibition of N-terminal GST-tagged recombinant human c-MET D1228N mutant (956 to end residues) extracted from baculovirus infected Sf9 cells using 5-FAM-KKKKEEIYFFF-CONH2 as substrate preincubated for 30 mins followed by ATP addition measured after 60 mins by fluorescence-based microfluidic mobility shift assay.

In brackets after ≈: the same amount, converted by molar mass.

cGMP-inhibited 3',5'-cyclic phosphodiesterase 3A (Homo sapiens), sequence (Q14432 whole entry): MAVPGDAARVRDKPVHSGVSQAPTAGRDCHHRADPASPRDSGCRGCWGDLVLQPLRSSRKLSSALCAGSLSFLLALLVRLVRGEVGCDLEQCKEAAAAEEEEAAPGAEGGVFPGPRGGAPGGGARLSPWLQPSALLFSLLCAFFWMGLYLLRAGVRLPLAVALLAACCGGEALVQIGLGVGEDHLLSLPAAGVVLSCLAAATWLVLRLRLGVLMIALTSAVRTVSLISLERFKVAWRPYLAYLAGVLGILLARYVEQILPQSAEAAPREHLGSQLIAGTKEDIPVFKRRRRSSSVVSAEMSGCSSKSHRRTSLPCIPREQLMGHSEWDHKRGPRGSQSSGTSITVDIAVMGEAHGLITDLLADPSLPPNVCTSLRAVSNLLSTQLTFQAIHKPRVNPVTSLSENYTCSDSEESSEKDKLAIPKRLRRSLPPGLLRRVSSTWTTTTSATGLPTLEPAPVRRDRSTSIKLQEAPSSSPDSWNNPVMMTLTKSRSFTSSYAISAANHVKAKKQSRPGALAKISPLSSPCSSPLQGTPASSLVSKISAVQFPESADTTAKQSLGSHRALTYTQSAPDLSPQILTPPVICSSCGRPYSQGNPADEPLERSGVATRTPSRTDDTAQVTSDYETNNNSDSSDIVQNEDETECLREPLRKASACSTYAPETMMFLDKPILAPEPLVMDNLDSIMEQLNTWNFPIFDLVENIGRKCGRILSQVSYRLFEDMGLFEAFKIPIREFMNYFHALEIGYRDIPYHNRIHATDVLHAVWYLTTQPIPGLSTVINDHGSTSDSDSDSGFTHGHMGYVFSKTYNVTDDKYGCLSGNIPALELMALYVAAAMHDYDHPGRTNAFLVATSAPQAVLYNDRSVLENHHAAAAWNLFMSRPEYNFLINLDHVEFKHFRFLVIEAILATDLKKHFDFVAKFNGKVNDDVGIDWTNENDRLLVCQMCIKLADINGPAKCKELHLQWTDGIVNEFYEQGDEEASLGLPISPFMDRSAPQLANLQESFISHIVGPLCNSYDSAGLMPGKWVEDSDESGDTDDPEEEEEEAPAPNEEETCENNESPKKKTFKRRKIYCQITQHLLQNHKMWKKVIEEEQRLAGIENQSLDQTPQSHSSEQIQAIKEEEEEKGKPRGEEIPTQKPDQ
Vascular endothelial growth factor receptor 2, sequence (P35968 whole entry): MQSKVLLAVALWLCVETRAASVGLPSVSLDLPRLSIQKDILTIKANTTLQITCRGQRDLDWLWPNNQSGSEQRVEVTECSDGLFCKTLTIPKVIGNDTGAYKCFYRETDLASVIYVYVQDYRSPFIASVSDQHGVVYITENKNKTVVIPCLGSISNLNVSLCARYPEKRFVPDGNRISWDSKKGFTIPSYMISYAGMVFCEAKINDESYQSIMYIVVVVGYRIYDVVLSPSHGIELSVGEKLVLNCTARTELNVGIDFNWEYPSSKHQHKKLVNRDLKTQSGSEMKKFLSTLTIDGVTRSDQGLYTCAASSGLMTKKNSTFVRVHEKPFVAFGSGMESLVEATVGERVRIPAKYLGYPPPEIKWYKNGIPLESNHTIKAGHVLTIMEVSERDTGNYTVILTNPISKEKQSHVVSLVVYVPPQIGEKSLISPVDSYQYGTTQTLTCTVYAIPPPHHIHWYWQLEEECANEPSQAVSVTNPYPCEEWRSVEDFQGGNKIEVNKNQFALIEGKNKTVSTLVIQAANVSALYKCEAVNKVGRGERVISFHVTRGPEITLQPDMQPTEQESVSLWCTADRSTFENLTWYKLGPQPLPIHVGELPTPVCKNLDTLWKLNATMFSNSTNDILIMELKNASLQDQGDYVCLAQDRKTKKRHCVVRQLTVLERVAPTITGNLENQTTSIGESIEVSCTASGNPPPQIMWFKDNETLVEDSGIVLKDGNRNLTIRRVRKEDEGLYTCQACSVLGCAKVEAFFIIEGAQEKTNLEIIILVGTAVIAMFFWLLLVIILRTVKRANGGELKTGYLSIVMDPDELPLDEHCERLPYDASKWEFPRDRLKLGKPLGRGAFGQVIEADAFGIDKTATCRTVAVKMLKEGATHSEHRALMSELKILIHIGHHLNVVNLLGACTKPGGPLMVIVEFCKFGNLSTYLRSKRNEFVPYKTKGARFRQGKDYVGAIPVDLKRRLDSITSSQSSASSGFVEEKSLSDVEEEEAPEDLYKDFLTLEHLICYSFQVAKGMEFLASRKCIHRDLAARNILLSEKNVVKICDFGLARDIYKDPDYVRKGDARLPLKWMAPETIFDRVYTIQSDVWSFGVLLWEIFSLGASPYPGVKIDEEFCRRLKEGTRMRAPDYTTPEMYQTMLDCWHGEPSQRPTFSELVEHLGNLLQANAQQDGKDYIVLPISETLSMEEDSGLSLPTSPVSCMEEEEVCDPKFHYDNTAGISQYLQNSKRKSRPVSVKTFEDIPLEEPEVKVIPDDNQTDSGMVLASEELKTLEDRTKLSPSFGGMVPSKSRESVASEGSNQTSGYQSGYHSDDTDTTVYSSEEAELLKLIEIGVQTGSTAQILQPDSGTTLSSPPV
5-hydroxytryptamine receptor 2B (Homo sapiens), sequence (P41595 whole entry): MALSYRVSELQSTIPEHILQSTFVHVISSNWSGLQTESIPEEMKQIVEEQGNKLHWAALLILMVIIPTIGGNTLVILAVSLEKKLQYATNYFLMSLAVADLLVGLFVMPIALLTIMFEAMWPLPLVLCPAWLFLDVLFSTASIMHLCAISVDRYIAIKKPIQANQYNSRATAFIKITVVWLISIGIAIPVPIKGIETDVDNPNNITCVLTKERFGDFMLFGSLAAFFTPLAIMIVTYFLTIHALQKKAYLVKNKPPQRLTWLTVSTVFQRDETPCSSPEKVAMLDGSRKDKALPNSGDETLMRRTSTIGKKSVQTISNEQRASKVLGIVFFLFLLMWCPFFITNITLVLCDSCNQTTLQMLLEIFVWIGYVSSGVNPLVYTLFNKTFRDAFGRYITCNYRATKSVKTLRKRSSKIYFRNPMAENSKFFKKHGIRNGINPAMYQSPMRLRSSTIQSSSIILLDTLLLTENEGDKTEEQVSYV
hERG, sequence (Q12809 whole entry): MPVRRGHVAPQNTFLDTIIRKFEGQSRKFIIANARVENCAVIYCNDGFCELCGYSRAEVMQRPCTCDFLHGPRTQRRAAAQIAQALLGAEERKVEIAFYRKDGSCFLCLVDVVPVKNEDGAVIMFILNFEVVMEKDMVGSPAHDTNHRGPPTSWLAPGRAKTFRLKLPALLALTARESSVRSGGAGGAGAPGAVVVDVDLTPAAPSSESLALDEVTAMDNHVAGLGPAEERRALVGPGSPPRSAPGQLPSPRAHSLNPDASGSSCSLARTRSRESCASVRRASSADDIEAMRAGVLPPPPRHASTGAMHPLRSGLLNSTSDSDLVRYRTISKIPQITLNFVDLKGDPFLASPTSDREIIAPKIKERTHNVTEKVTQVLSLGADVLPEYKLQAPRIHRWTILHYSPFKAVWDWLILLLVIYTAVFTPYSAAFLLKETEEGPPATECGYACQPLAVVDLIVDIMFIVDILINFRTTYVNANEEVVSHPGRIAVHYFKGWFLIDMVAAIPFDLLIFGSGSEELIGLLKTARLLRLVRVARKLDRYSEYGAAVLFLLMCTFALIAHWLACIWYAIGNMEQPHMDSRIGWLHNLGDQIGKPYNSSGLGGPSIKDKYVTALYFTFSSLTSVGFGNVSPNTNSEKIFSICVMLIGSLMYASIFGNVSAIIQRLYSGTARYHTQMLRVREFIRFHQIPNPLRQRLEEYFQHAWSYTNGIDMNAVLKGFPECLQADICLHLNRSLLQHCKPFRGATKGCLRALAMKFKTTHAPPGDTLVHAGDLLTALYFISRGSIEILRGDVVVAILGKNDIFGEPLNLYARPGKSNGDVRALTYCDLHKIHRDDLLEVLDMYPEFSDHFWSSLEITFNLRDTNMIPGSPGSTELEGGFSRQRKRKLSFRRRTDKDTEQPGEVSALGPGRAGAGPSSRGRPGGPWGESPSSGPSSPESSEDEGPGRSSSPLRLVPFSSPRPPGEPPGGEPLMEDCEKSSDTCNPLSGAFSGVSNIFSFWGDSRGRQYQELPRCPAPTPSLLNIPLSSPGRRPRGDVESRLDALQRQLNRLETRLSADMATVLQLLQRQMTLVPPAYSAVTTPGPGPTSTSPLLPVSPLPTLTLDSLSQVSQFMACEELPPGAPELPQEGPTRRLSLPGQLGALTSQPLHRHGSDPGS
5-hydroxytryptamine receptor 1B (Homo sapiens), sequence (P28222 whole entry): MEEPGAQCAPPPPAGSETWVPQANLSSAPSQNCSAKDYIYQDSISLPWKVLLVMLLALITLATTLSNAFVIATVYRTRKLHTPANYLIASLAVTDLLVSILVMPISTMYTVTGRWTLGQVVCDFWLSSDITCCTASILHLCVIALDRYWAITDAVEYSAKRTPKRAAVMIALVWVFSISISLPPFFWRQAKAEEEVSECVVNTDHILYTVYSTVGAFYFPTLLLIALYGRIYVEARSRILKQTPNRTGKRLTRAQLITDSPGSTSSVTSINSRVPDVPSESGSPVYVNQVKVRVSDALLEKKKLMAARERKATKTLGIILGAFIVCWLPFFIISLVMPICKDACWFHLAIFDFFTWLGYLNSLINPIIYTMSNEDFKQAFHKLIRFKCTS

For `CNCCOc1cc2nccc(Oc3c(F)cc(NC(=O)c4cnccc4OC)cc3F)c2cc1OC`, the solubility kinetic in data set [1] was determined as 276 µM (≈ 141 µg/mL); in data set [11], 208 µM (≈ 106 µg/mL). The inhibition is 11% in [2]; 3% in [3]; -2% in [6]; 89% in data set [7]; 101% in [8]; 54% in data set [10]. The inhibition came to 54% in [12] and 58% in [15]. The EC50 in [4] amounted to 59 nM; in data set [16], 41 nM. The inhibition at 10 µM in data set [5] stood at 41%; in data set [9], 70%. The clearance in data set [13] amounted to 43 mL/min/kg. In data set [14], the bioavailability is below 5%.

For the compound `COc1cc2c(Oc3c(F)cc(NC(=O)c4cnccc4OC)cc3F)ccnc2cc1OCCO`, the figures for the solubility kinetic in data set [1] and in data set [11] were 315 µM (≈ 157 µg/mL) and 11 µM (≈ 5.47 µg/mL), respectively. For the same compound, the inhibition was 90% in data set [2]; 12% in data set [3]; 98% in data set [6]; 30% in data set [7]; 7% in data set [8]; -8% in [10]. Moreover, the results for the inhibition in data set [12] and in data set [15] were 8% and 18%, respectively. In addition, the bioavailability in [17] and in [14] was around 100% throughout. In addition, the EC50 in data set [4] came out at 36 nM; in [16], 31 nM. Besides, the inhibition at 10 µM in data set [5] was -3%; in data set [9] it was 3%.

`COc1cc2nccc(Oc3ccc(NC(=O)C4(C(=O)Nc5ccc(F)cc5)CC4)cc3)c2cc1OC` [CABOZANTINIB]: the solubility kinetic in data set [1] came out at 21 µM (≈ 10.5 µg/mL); in data set [11] it was 5.2 µM (≈ 2.61 µg/mL).

For the compound `COc1cc2c(Oc3c(F)cc(NC(=O)c4cnccc4OC4CC4)cc3F)ccnc2cc1OCCO`, the solubility kinetic in data set [1] was determined as 312 µM (≈ 163 µg/mL); in data set [11], 8.1 µM (≈ 4.24 µg/mL). The inhibition was found to be 96% in data set [2]; 81% in data set [3]; 99% in data set [6]; 57% in [7]; 4% in [8]; 22% in data set [10]. Also, the inhibition in data set [12] is -1%; in data set [15] it was 69%. In addition, the EC50 in data set [4] was found to be 18 nM; in data set [16], 14 nM. Also, the inhibition at 10 µM came to 50% in data set [5] and 13% in [9]. For the same compound, the clearance in data set [13] was 5.4 mL/min/kg. The same compound showed a bioavailability in data set [14] of around 100%.

`Cc1ccc(C(=O)Nc2ccc(Oc3cc4cnn(C)c4cc3-c3cn[nH]c3)c(F)c2)c(=O)n1-c1ccc(F)cc1` [MERESTINIB]: the IC50 is 341 nM in [18], 0.5 nM in [21] and 0.5 nM in data set [30]. The EC50 in [19] turned out to be 91 nM; in data set [20], 255 nM; in data set [22], 21 nM; in data set [4], 25 nM; in data set [23], 511 nM; in data set [24] it was 7.8 nM. Besides, the 50% effective concentration (EC50) in data set [25] was 203 nM; in data set [26] it was 249 nM; in data set [27] it was 23 nM; in data set [28], 26 nM; in data set [29] it was 129 nM; in [31] it was 64 nM. Further, the EC50 in data set [32] was determined as 18 nM; in [33], 837 nM; in data set [16], 116 nM. In addition, the solubility kinetic in data set [1] is 0.4 µM (≈ 0.221 µg/mL); in data set [11] it was 0.08 µM (≈ 0.0442 µg/mL).

`COc1cc2nccc(Oc3ccc(NC(=O)c4ccccc4OC)cc3F)c2cc1OC`: the IC50 in data set [18] is 250 nM; in [34], 4.4 nM; in data set [35] it was 2.2 nM. Further, the solubility kinetic in data set [1] came to 6.1 µM (≈ 2.74 µg/mL); in data set [11], 1 µM (≈ 0.448 µg/mL). In addition, the concentration giving a half-maximal response (EC50) in [4] is 1320 nM; in data set [16], 795 nM.

With `COCCNCc1ccc(-c2cc3nccc(Oc4ccc(NC(=S)NC(=O)Cc5ccc(F)cc5)cc4F)c3s2)nc1` [GLESATINIB], the IC50 in data set [18] was determined as 0.5 nM. Further, the solubility kinetic in data set [1] amounted to 4 µM (≈ 2.48 µg/mL); in data set [11], 0.12 µM (≈ 0.0744 µg/mL).
